For data set [1], the system named is MAXF-401 human breast carcinoma xenograft. Nature of the data set: Antitumor activity in MAXF-401 subcutaneous xenograft in athymic nude mice, combination with capecitabine (Example 3). In kind it is in vivo. The conditions noted are these: monotherapy 3, 4 or 6 mg/kg; one week after final injection; 2.5% DMSO control. The method, then: The MAXF-401 human breast carcinoma cell line was obtained from Prof Fiebig (University of Freiburg, Germany). This cell line was maintained in mice; the tumor fragments were implanted subcutaneously and serially passaged in mice prior to use.
One hundred (100) 5-week-old female athymic nude mice (BALB/c nu/nu) were purchased from Charles River Japan, Inc. (Yokohama, Japan). The mice were housed in an air-conditioned room (temperature 22±2° C., relative humidity 55±10%) under 12 h light/dark cycles. The mice were given sterilized CE-2 and tap water with 25μg/mL gentamycin ad libitum. […]
The in vivo evaluation procedure for anticancer drugs was based on the methods described by Plowman, et al. (1997) for xenograft models. […] The tumor volume and body weight of each mouse were measured twice a week. […] One week after the final injection, tumor growth inhibition (TGI) was calculated using the formula (1-T/C)×100 (%), where T (treated group) and C (control group) represent the mean tumor volume change. ED50 values were calculated from values of tumor growth inhibition on day 21 using the XL fit program. […]
Packaged software (SAS preclinical package version 5.0,SAS Institute Japan, Ltd.) was used for the statistical analysis. […] ED50s were calculated from values of tumor growth inhibition percentage using XL fit program #509 (MS Excel Add Version 3.0.5 Build -In: XLfit3 12, ID Business Solutions Ltd.)

The nature of data set [2]: Maximum tolerated dose (neither lethality nor more than 20% body weight loss) in mice. The following applies: BALB/c nu/nu (athymic nude), mouse, in vivo, dose with neither lethality nor more than 20% body weight loss. An excerpt: The in vivo evaluation procedure for anticancer drugs was based on the methods described by Plowman, et al. (1997) for xenograft models. See, “Anticancer Drug Development Guide: Preclinical Screening, Clinical Trials, and Approval, Teicher B (ed) pp. 101-125, specifically Chap. 6, “Human Tumor Xenograft Models in NCI Drug Development”, hereby incorporated by reference.
See, “Anticancer Drug Development Guide: Preclinical Screening, Clinical Trials, and Approval, Teicher B (ed) pp. 101-125, specifically Chap. 6, “Human Tumor Xenograft Models in NCI Drug Development”, hereby incorporated by reference.
The in vivo evaluation procedure for anticancer drugs was based on the methods described by Plowman, et al. (1997) for xenograft models. See, “Anticancer Drug Development Guide: Preclinical Screening, Clinical Trials, and Approval, Teicher B (ed) pp. 101-125, specifically Chap.

Data set [3] relates to HT-29 human colorectal adenocarcinoma xenograft. Format: in vivo. The conditions noted are these: day 31. How it is done:
The HT-29 human colorectal adenocarcinoma cell line was purchased from American Type Culture Collection (Rockville, MD, U.S.A.). The cells were cultured in McCoy's 5a medium (Sigma-Aldrich Corporation, MO, U.S.A.) supplemented with 10% (v/v) fetal bovine serum (Roche Diagnostics KK, Tokyo, Japan).
Sixty of 5-week-old male athymic nude mice (BALB/c nu/nu) were purchased from Charles River Japan, Inc. (Yokohama, Japan). All mice were kept for 9 days in the animal facility of Kamakura Research Laboratories of Chugai Pharmaceutical Co., Ltd. before subjection to the experiment.
Capecitabine was dissolved by the 40 milli mol/L citrate buffered-5% Gum arabic solution (pH 6.0; Chugai Pharmaceutical Co., Ltd.).
The in vivo evaluation procedure for anticancer drugs was based on the methods described by Plowman, et al. (1997) for xenograft models. See, “Anticancer Drug Development Guide: Preclinical Screening, Clinical Trials, and Approval, Teicher B (ed) pp. 101-125, specifically Chap. 6, “Human Tumor Xenograft Models in NCI Drug Development”, hereby incorporated by reference. A single cell suspension of HT-29 (1.1×10^7 cells per mouse) was inoculated subcutaneously into the right flank of each mouse. The tumor volume was estimated by using the equation ab^2/2, where a and b represent tumor length and width, respectively. Mice bearing tumors of between 172 and 282 mm^3 were selected on day 10 after tumor inoculation and were randomly divided into 7 groups, consisting of 6 mice each. Mean tumor volume and body weight of the selected mice were 217 mm^3 and 25.0 g respectively. Drug administration was initiated after mice were divided into groups. […] Capecitabine (359 mg/kg or 539 mg/kg) and its vehicle were administered orally. Tumor volume and body weight of each mouse were measured twice a week. […] Tumor growth inhibition was calculated using the equation (1-ΔT/ΔC)×100, where ΔT represents the difference in tumor volume from the initial treatment date of the treated group and ΔC represents the difference in tumor volume from the initial treatment date of the vehicle group.

Where two headings read alike, the source gives them in different places.

Regarding `CC[C@H](C)[C@@H]([C@@H](CC(=O)N1CCC[C@H]1[C@H](SC)[C@@H](C)C(=O)N(C)CCc1cccc(O)c1)OC)N(C)C(=O)[C@@H](NC(=O)[C@H](C(C)C)N(C)C)C(C)C` [compound of formula (I-A), N-[1-({1-sec-Butyl-4-[2-(2-{[2-(3-hydroxy-phenyl)-ethyl]-methyl-carbamoyl}-1-methylsulfanyl-propyl)-pyrrolidin-1-yl]-2-methoxy-4-oxo-butyl}-methyl-carbamoyl)-2-methyl-propyl]-2-dimethylamino-3-methyl-butyramide], in data set [1], the “volume of tumor in comparison with control” value was “decreased significantly”. The molecule also gave an MTD in data set [2] of 6 mg/kg. Moreover, the “reduction of tumor growth” value stood at 76% in data set [3] (3 mg/kg (1/2 MTD) i.v. weekly x3) and 101% in data set [3] (4 mg/kg (2/3 MTD) i.v. weekly x3).

The MTD is the largest dose that counted as tolerated.

The values above are taken from patent US20060292158A1, “Method for the treatment of cancer using a novel pharmaceutical composition containing at least one dolastatin 10 derivative” (priority 2004, published 2006).
